Data taken from US7408024B2, “Somatostatin antagonists” (The Administrators of the Tulane Educational Fund, priority 2001, dated 2008).
Where a SMILES comes first, the peptide text is derived from it. Bridges are numbered along the chain shown (N, C = ends). [ ]: non-standard residue; d: D form. Phe(4-Cl) = N[C@@H](Cc1ccc(Cl)cc1)C(=O)O; dNMeW = CN[C@H](Cc1c[nH]c2ccccc12)C(=O)O; Dip = N[C@H](C(=O)O)C(c1ccccc1)c1ccccc1; 2Nal = N[C@@H](Cc1ccc2ccccc2c1)C(=O)O; NMeT = CN[C@H](C(=O)O)[C@@H](C)O; 3Pal = N[C@@H](Cc1cccnc1)C(=O)O; NMeK = CN[C@@H](CCCCN)C(=O)O; NMeC = CN[C@@H](CS)C(=O)O; dNMeC = CN[C@H](CS)C(=O)O

How the values were obtained:
hsst4 = molecular target: T1, hsst4 (Homo sapiens, UniProt P31391); test: Radioligand binding, cloned human sst4 receptor (CHO-K1 membranes); conditions: [125I]Tyr11-SRIF, CHO-K1 cell membranes; single values = one binding experiment; read-out: K1 ± SEM hsst4
T1 construct: each containing the entire coding region of the full-length receptors; expressed in transfected cells
T1 sequence (P31391 whole entry): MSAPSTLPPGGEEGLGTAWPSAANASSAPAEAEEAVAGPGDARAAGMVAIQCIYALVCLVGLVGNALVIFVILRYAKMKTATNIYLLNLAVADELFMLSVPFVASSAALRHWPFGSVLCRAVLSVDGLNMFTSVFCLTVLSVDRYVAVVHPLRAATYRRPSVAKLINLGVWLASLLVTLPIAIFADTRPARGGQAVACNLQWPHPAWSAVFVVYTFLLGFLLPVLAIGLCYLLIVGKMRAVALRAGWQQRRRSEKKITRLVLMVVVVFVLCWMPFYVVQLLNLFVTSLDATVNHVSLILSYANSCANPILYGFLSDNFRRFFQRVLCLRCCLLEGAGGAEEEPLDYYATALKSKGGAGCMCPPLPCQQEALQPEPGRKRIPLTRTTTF
From the text: (§1) The genomic clones containing the human somatostatin receptors (hsstr1-5) (Yamada, Y., et al. al., Proc. Natl. Acad. Sci. USA. 1992, 89, 251-255; Yasuda, K., et al., J. Biol. Chem. 1992, 267, 20422-20428; Yamada, Y., et al., Mol. Pharmacol. 1992, 42, 2136-2142; Rohrer, L., et al., Proc. Natl. Acad. Sci. USA. 1993, 90, 4196-4200.), were kindly provided by Dr. Graeme I. Bell (University of Chicago). The hsstr1, hsstr2, hsstr3, hsstr4 and hsstr5 cDNAs were isolated as a 1.5-kb PstI-XmnI fragment, 1.7-kb BamHI-HindIII fragment, 2.0-kb NcoI-HindIII fragment, 1.4-kb NheI-NdeI fragment, and a 1.2-kb HindIII-XbaI fragment, respectively, each containing the entire coding region of the full-length receptors. These fragments were independently subdloned into the corresponding restriction endonuclease sites in the mammalian expression vector pCMV5, downstream from the human cytomegalovirus (CMV) promoter, to produce the expression plasmids pCMV5/hsstr1, pCMV5/hsstr2, pCMV5/hsstr3, pCMV5/hsstr4 and pCMV5/hsstr5. For transfection into CHO-K1 cells, a plasmid, pRSV-neo (American Type Culture Collection, Rockville, Md.), carrying the neomycin mammalian cell selectable marker was added.
(§2) Transfections were performed by the calcium phosphate method. CHO-K1 cells are maintained in α-minimum essential medium (α-MEM; Gibco) supplemented with 10% fetal calf serum and transfected with each of the expression plasmids using calcium phosphate precipitation. Clones that had inherited the expression plasmid were selected in α-MEM supplemented with 500 μg mL^−1 of geneticin (G418; Gibco). Independent CHO-K1 clones were picked by glass-ring cloning and expanded in culture in the selective media. Membranes were prepared from the isolated clones and hsstr expression was initially assessed for binding with [^125I]Tyr^11-SRIF and [^125]IMK-678 (for sstr2).
(§3) Cell membranes of the 5 receptor types were obtained from homogenates (Polytron setting 6, 15 sec) of the corresponding CHO-K1 cells, in ice-cold Tris-HCl (50 mM) and centrifuged (39000 g, 10 min×2), with an intermediate resuspension in fresh buffer. The final pellets are resuspended in Tris-HCl (10 mM) for assay. Aliquots of the membranes are incubated (30 min at 37° C.) with 0.05 nM [^125I]Tyr^11-SRIF (types 1,3,4,5) or [^125I]MK-678 (type 2) in 50 mM HEPES (pH 7.4) containing BSA (10 mg mL^−1); MgCl2 (5 mM), Trasylol (200 kIU mL^−1), bacitracin (0.02 mg mL^−1), and phenylmethanesulfonyl fluoride (0.02 mg mL^−1). The final assay volume is 0.3 mL and incubations are terminated by rapid filtration through GF/C filters pre-soaked in 0.3% poly(ethylenimine) using a Brandel rapid filtration module. Each tube and filter is then washed with aliquots of cold buffer (3×5 mL).
(§4) Specific binding is. defined as the total radioligand bound minus that bound in the presence of 1.0 μM SRIF.

hsst5 = molecular target: T2, hsst5 (Homo sapiens, UniProt P35346); test: Radioligand binding, cloned human sst5 receptor (CHO-K1 membranes); conditions: [125I]Tyr11-SRIF, CHO-K1 cell membranes; single values = one binding experiment; read-out: K1 ± SEM hsst5
T2 construct: each containing the entire coding region of the full-length receptors; expressed in transfected cells
T2 sequence (P35346 whole entry): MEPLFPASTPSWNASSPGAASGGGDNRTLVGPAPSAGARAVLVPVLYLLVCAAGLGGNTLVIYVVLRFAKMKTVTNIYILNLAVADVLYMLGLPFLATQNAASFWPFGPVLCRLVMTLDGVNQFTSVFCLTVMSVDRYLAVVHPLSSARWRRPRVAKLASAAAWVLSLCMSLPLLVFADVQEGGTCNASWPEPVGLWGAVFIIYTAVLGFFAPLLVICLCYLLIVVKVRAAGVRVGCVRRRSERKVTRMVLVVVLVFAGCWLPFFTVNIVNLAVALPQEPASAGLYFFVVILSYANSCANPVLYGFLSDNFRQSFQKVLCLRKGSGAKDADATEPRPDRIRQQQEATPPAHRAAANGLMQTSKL
From the text: as §1, §2, §3, §4

hsst1 = molecular target: T3, hsst1 (Homo sapiens, UniProt P30872); test: Radioligand binding, cloned human sst1 receptor (CHO-K1 membranes); conditions: [125I]Tyr11-SRIF, CHO-K1 cell membranes; single values = one binding experiment; read-out: K1 ± SEM hsst1
T3 construct: each containing the entire coding region of the full-length receptors; expressed in transfected cells
T3 sequence (P30872 whole entry): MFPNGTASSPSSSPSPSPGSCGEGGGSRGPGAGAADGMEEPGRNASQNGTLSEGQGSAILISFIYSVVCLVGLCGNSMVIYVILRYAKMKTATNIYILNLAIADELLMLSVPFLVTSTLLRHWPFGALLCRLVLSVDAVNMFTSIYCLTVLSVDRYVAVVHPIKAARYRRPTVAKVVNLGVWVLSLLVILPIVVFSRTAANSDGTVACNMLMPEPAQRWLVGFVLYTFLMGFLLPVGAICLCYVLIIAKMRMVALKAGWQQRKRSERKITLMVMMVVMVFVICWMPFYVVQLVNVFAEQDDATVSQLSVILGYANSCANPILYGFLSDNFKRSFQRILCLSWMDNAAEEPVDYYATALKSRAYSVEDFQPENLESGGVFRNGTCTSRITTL
From the text: as §1, §2, §3, §4

hsst3 = molecular target: T4, hsst3 (Homo sapiens, UniProt P32745); test: Radioligand binding, cloned human sst3 receptor (CHO-K1 membranes); conditions: [125I]Tyr11-SRIF, CHO-K1 cell membranes; single values = one binding experiment; read-out: K1 ± SEM hsst3
T4 construct: each containing the entire coding region of the full-length receptors; expressed in transfected cells
T4 sequence (P32745 whole entry): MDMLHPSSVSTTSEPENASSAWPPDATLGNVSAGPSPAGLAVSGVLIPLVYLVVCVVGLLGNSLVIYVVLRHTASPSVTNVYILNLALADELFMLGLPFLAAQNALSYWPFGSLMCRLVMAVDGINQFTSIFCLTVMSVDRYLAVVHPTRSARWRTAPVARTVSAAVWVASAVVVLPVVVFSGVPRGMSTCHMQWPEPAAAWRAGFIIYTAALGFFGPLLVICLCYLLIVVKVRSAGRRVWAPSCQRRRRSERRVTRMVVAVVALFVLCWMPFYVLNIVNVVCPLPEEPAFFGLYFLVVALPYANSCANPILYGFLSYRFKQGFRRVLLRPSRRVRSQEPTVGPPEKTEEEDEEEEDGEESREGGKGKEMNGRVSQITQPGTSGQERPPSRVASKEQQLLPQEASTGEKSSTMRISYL
From the text: as §1, §2, §3, §4

hsst2 = molecular target: T5, hsst2 (Homo sapiens, UniProt P30874); test: Radioligand binding, cloned human sst2 receptor (CHO-K1 membranes); conditions: [125I]MK-678, CHO-K1 cell membranes; single values = one binding experiment; read-out: K1 ± SEM hsst2
T5 construct: each containing the entire coding region of the full-length receptors; expressed in transfected cells
T5 sequence (P30874 whole entry): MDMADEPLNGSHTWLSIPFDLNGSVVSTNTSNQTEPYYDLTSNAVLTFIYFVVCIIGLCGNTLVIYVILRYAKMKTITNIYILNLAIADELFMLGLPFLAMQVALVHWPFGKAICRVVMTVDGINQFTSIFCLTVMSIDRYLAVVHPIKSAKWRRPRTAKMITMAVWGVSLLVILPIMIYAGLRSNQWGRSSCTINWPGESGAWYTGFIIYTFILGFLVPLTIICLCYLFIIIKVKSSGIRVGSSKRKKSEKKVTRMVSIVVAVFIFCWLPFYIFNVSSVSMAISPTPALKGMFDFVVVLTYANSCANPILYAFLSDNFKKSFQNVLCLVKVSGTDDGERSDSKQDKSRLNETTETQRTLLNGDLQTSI
From the text: as §1, §2, §3, §4

[1] = test system: SRIF inhibition of GH release in rat anterior pituitary cells; type: cell-based
Description: Anterior pituitaries from adult male rats were collected and dispersed by a previously described trypsin/DNase method. (Murphy, W. A.; Taylor, J.; Moreau, J.-P. and Coy, D. […] Sigma) and nystatin (10,000 U mL^−1; Gibco). The cells were randomly plated at a density of approximately 200,000 cells/well (Costar cluster 24; Rochester Scientific Co., Rochester, N.Y.). The plated cells were maintained in the above Dulbecco's medium in a humidified atmosphere of 95% air/5% CO2 at 37° C. for 4-6 days. In preparation for a hormone challenge, the cells were washed with medium 199 (Gibco, 3×1 mL). […] Sigma Chemical Co.). […] After 3 h incubation in an air/carbon dioxide atmosphere (95/5%, 3 h at 37° C.), the medium was removed and stored at −20° C. until assayed for hormone content. Growth hormone in media was measured by a standard double antibody RIA using components generously supplied by Dr. A. F. Parlow at the National Hormone and Pituitary Program (NHHP) Torrance, Calif.

Row | Structure (SMILES) | Ki (hsst4) [nM] | Ki (hsst5) [nM] | Ki (hsst1) [nM] | Ki (hsst3) [nM] | Ki (hsst2) [nM] | IC50 [1] [nM]
1 | CNC(=O)[C@H](Cc1ccc2ccccc2c1)NC(=O)[C@@H]1CSSC[C@@H](N(C)C(=O)[C@@H](N)Cc2ccc(Cl)cc2)C(=O)N[C@@H](Cc2cccnc2)C(=O)N[C@H](Cc2c[nH]c3ccccc23)C(=O)N[C@@H](CCCCN)C(=O)N[C@@H]([C@@H](C)O)C(=O)N1 [Peptide 2, Cpa-cyclo(NmeDCys-3-Pal-DTrp-Lys-Thr-Cys)-2-Nal-NHMe] (H-[Phe(4-Cl)][dNMeC][3Pal][dW]KTC[2Nal]-NHMe; disulfide 2-7) | 1000 | 106 ± 36 | 1000 | 576 ± 47 | 89 ± 8 | 
2 | C[C@@H](O)[C@@H]1NC(=O)[C@H](CCCCN)NC(=O)[C@@H](Cc2c[nH]c3ccccc23)NC(=O)[C@H](Cc2cccnc2)N(C)C(=O)[C@H](NC(=O)[C@@H](N)Cc2ccc(Cl)cc2)CSSC[C@@H](C(=O)N[C@@H](Cc2ccc3ccccc3c2)C(N)=O)NC1=O [Peptide 3, Cpa-cyclo(DCys-Nme3-Pal-DTrp-Lys-Thr-Cys)-2-Nal-NH2] |  |  |  | 450 ± 132 | 189 ± 35 | 
3 | C[C@@H](O)[C@@H]1NC(=O)[C@H](CCCCN)NC(=O)[C@@H](Cc2c[nH]c3ccccc23)N(C)C(=O)[C@H](Cc2cccnc2)NC(=O)[C@H](NC(=O)[C@@H](N)Cc2ccc(Cl)cc2)CSSC[C@@H](C(=O)N[C@@H](Cc2ccc3ccccc3c2)C(N)=O)NC1=O [Peptide 4, Cpa-cyclo(DCys-3-Pal-NMeDTrp-Lys-Thr-Cys)-2-Nal-NH2] (H-[Phe(4-Cl)][dC][3Pal][dNMeW]KTC[2Nal]-NH2; disulfide 2-7) |  | 93 ± 17.7 |  | 390 ± 114 | 51.8 ± 2.6 | 
4 | C[C@@H](O)[C@@H]1NC(=O)[C@H](CCCCN)N(C)C(=O)[C@@H](Cc2c[nH]c3ccccc23)NC(=O)[C@H](Cc2cccnc2)NC(=O)[C@H](NC(=O)[C@@H](N)Cc2ccc(Cl)cc2)CSSC[C@@H](C(=O)N[C@@H](Cc2ccc3ccccc3c2)C(N)=O)NC1=O [Peptide 5, Cpa-cyclo(DCys-3-Pal-DTrp-NMeLys-Thr-Cys)-2-Nal-NH2] (H-[Phe(4-Cl)][dC][3Pal][dW][NMeK]TC[2Nal]-NH2; disulfide 2-7) |  | 5.98 ± 0.91 |  | 66 ± 5.8 | 17.1 ± 5.5 | 
5 | C[C@@H](O)[C@H]1C(=O)N[C@H](C(=O)N[C@@H](Cc2ccc3ccccc3c2)C(N)=O)CSSC[C@@H](NC(=O)[C@@H](N)Cc2ccc(Cl)cc2)C(=O)N[C@@H](Cc2cccnc2)C(=O)N[C@H](Cc2c[nH]c3ccccc23)C(=O)N[C@@H](CCCCN)C(=O)N1C [Peptide 6, Cpa-cyclo(DCys-3-Pal-DTrp-Lys-NMeThr-Cys)-2-Nal-NH2] (H-[Phe(4-Cl)][dC][3Pal][dW]K[NMeT]C[2Nal]-NH2; disulfide 2-7) | 1000 |  | 395 ± 202 | 315 ± 12.5 | 1000 | 
6 | C[C@@H](O)[C@@H]1NC(=O)[C@H](CCCCN)NC(=O)[C@@H](Cc2c[nH]c3ccccc23)NC(=O)[C@H](Cc2cccnc2)NC(=O)[C@H](NC(=O)[C@@H](N)Cc2ccc(Cl)cc2)CSSC[C@@H](C(=O)N[C@@H](Cc2ccc3ccccc3c2)C(N)=O)N(C)C1=O [Peptide 7, Cpa-cyclo(DCys-3-Pal-DTrp-Lys-Thr-NmeCys)-2-Nal-NH2] (H-[Phe(4-Cl)][dC][3Pal][dW]KT[NMeC][2Nal]-NH2; disulfide 2-7) | 575 |  |  | 68.7 ± 4.7 | 810 | 
7 | C[C@@H](O)[C@@H]1NC(=O)[C@H](CCCCN)NC(=O)[C@@H](Cc2c[nH]c3ccccc23)NC(=O)[C@H](Cc2cccnc2)NC(=O)[C@H](NC(=O)[C@@H](N)Cc2ccc(Cl)cc2)CSSC[C@@H](C(=O)N[C@@H](Cc2ccc3ccccc3c2)C(N)=O)NC1=O [Peptide 9, Cpa-cyclo(DCys-3-Pal-DTrp-Lys-Thr-Cys)-Nal-NH2] | 1000 |  |  | 38.2 ± 2.4 | 12.1 ± 1.9 | 
8 | CNC(=O)[C@@H](NC(=O)[C@@H]1CSSC[C@@H](N(C)C(=O)[C@@H](N)Cc2ccc(Cl)cc2)C(=O)N[C@@H](Cc2cccnc2)C(=O)N[C@H](Cc2c[nH]c3ccccc23)C(=O)N[C@@H](CCCCN)C(=O)N[C@@H]([C@@H](C)O)C(=O)N1)C(c1ccccc1)c1ccccc1 [Peptide 10, Cpa-cyclo(NMeDCys-3-Pal-DTrp-Lys-Thr-Cys)-Dip-NHMe] (H-[Phe(4-Cl)][dNMeC][3Pal][dW]KTC[Dip]-NHMe; disulfide 2-7) | 1000 | 766 ± 110 | 1000 | 584 ± 305 | 117 ± 24.6 | 
9 | C[C@@H](O)[C@@H]1NC(=O)[C@H](CCCCN)N(C)C(=O)[C@@H](Cc2c[nH]c3ccccc23)NC(=O)[C@H](Cc2ccc(O)cc2)NC(=O)[C@H](NC(=O)[C@@H](N)Cc2ccc(Cl)cc2)CSSC[C@@H](C(=O)N[C@@H](Cc2ccc3ccccc3c2)C(N)=O)NC1=O [Peptide 12, Cpa-cyclo(DCys-Tyr-DTrp-NMeLys-Thr-Cys)-2-Nal-NH2] (H-[Phe(4-Cl)][dC]Y[dW][NMeK]TC[2Nal]-NH2; disulfide 2-7) | 1000 |  | 1000 | 115 ± 16.9 | 5.51 ± 1.85 | 0.53 ± 0.17
10 | C[C@@H](O)[C@@H]1NC(=O)[C@H](CCCCN)N(C)C(=O)[C@@H](Cc2c[nH]c3ccccc23)NC(=O)[C@H](Cc2cccnc2)NC(=O)[C@H](NC(=O)[C@@H](N)Cc2ccc(Cl)cc2)CSSC[C@@H](C(=O)N[C@H](Cc2c[nH]c3ccccc23)C(N)=O)NC1=O [Peptide 14, Cpa-cyclo(DCys-3-Pal-DTrp-NMeLys-Thr-Cys)-DTrp-NH2] (H-[Phe(4-Cl)][dC][3Pal][dW][NMeK]TC[dW]-NH2; disulfide 2-7) |  |  |  | 91.4 ± 11.9 | 5.45 ± 0.3 | 
11 | C[C@@H](O)[C@@H]1NC(=O)[C@H](CCCCN)N(C)C(=O)[C@@H](Cc2c[nH]c3ccccc23)NC(=O)[C@H](Cc2cccnc2)NC(=O)[C@H](NC(=O)[C@@H](N)Cc2ccc3ccccc3c2)CSSC[C@@H](C(=O)N[C@H](Cc2c[nH]c3ccccc23)C(N)=O)NC1=O [Peptide 15, Nal-cyclo(DCys-3-Pal-DTrp-NMeLys-Thr-Cys)-DTrp-NH2] (H-[2Nal][dC][3Pal][dW][NMeK]TC[dW]-NH2; disulfide 2-7) | 1000 | 176 ± 65.1 | 1000 |  | 27.3 ± 1.45 | 
12 | C[C@@H](O)[C@@H]1NC(=O)[C@H](CCCCN)N(C)C(=O)[C@@H](Cc2c[nH]c3ccccc23)NC(=O)[C@H](Cc2cccnc2)NC(=O)[C@H](NC(=O)[C@@H](N)Cc2cccnc2)CSSC[C@@H](C(=O)N[C@H](Cc2c[nH]c3ccccc23)C(N)=O)NC1=O [Peptide 16, 3-Pal-cyclo(DCys-3-Pal-DTrp-NMeLys-Thr-Cys)-DTrp-NH2] (H-[3Pal][dC][3Pal][dW][NMeK]TC[dW]-NH2; disulfide 2-7) |  | 313 ± 4.1 |  | 537 ± 44.8 | 24.7 ± 1.61 | 
